Key:
EGFR-GRB2 interactions = system: EGFR-GRB2 interactions; parameters: species or system nude mice; settings: mouse, in vivo
Description: 5. […] Record start time • b. Incubation time should be 16-18 h

EGFR-GRB2 = type: in vivo, mice; settings: H1650 (EGFR mutant) or H322 (EGFR wildtype) xenografts, with or without erlotinib, 18 days
Description: (§1) Tumor xenografts were established in mice with either H1650 (EGFR mutant) or H322 (EGFR wildtype), treated with or without erlotinib and allowed to grow for 18 days. Formalin-fixed, paraffin-embedded tumor tissue was analyzed by PLA for the interaction of EGFR-GRB2 (left) and EGFR-SHC1 (right). Nuclei are shown in blue, PLA signal is red and cytokeratin is green. For clarity, identical images are shown with and without cytokeratin staining for each tumor.
(§2) Tumor tissues from subcutaneous mouse models of lung cancer will be used. […] Mice have been selected for these experiments since they are most suitable for xenograft and […] studies of lung cancer, are readily available and not endangered, and can be safely maintained in the laboratory animal vivarium. CD-1 nu/nu mice mice will be purchased from approved vendors and housed in institutional animal facilities according to protocols set out by the American Association for Accreditation of Laboratory Animal Care. The inventor currently has active IACUC protocol for establishing subcutaneous tumor xenografts in mice. Both male and female mice of approximately six weeks of age will be used. Mice will be anesthetized in an induction chamber containing 3% isoflurane and 97% oxygen.

EGFR-SHC1 = type: in vivo, mice; settings: H1650 (EGFR mutant) or H322 (EGFR wildtype) xenografts, with or without erlotinib, 18 days
Description: as §1, §2

phosphor-EGFRY1068 = assay: PLA for phosphorylated EGFR in cell lines (single antibody to phospho-EGFR Y1068); type: cell-based, human; settings: PC9 cells, 3 hours of treatment
Description: 9. […] Record start time • b. Incubation time should be 16-18 h
11. […] Ensure complete coverage of tissue area.

EGFR = type: cell-based, human
lung cancer cell lines = assay: Sensitivity of lung cancer cell lines to EGFR TKI; type: cell-based, human
[1] = system: EGFR binding of Grb2, Mig6, Sts1; assay: Affinity purification mass spectrometry (AP-MS) of EGFR interactions; type: cell-based, human; settings: cells treated with erlotinib; data not shown
Description: The present inventors have initiated a system wide and global analysis of the PPI driven by hyperactivated epidermal growth factor receptor (EGFR) resulting from somatic mutation in non-small cell lung cancer (NSCLC) (17-19). The inventors' approach has been to combine (i) affinity purification—mass spectrometry (AP-MS) and (ii) phosphotyrosine proteomics. The inventors use cell models that harbor mutant EGFR proteins and are highly sensitive to EGFR TKI. As the network of EGFR is highly dependent on cell context, this approach offers the best chance of recovering pertinent proteins and mechanisms, a potential flaw in using cells other than lung cancer cells driven by mutant EGFR. Tagged versions of EGFR are initially used to identify interactions and second round of AP-MS is performed to more fully construct the network (20, 21). The inventors simultaneously performed tyrosine phosphoproteomics—tyrosine phosphorylated (pTyr) peptides are enriched using an anti-phosphotyrosine antibody and then identified and quantified on an Orbitrap mass spectrometer using published methods (9). […]
EGFR inhibitors are predicted to disrupt signaling complexes on the EGFR protein. […] Changes in EGFR PPI will be determined using PLA on these tumor samples. Measurements of EGFR PPI using PLA will be analyzed from the pre-treatment sample and again on the post-treatment sample.

Question: Which results are given for C#Cc1cccc(Nc2ncnc3cc(OCCOC)c(OCCOC)cc23)c1 [erlotinib]?
Answer: EGFR-GRB2 PLA signal in tumor (EGFR-GRB2 interactions): considerably reduced; proteins in complex with EGFR (PLA) (EGFR-GRB2 interactions): reductions in proteins in complex with EGFR; EGFR-GRB2 PLA signal in tumor tissue (EGFR-GRB2): markedly reduced; EGFR-SHC1 PLA signal in tumor tissue (EGFR-SHC1): markedly reduced; phosphorylation of EGFR by PLA (pEGFR Y1068), confirmed by immunoblot (phosphor-EGFRY1068): abolishes; EGFR tyrosine phosphorylation (EGFR): inhibits; sensitivity to EGFR TKI (erlotinib) (lung cancer cell lines; A549, H23 and H460 cells): resistant; erlotinib sensitivity (lung cancer cell lines; H322 and H1648 cells): some degree of erlotinib sensitivity; sensitivity to EGFR TKI (erlotinib) (lung cancer cell lines; H1648, H322, H358 and H292 cells, wildtype EGFR): some degree of sensitivity; EGFR binding partners by mass spectrometry [1]: no longer bound Grb2, Mig6 or Sts1

From US10139410B2, “Protein-protein interaction as biomarkers” (H. LEE MOFFITT CANCER CENTER AND RESEARCH INSTITUTE, INC., priority 2011, dated 2018)
